Measured values as given in US7705016B2, “Regulation of food intake by modulation of long-chain fatty acyl-CoA levels in the hypothalamus” (Albert Einstein College of Medicine of Yeshiva University, priority 2003, dated 2010).
“And” between values parts separate entries of the source, which are not always exact repeats. Identical values can stand only once. “Also recorded” adds a separate entry of the source.

Legend:
[1] = test system: male Sprague-Dawley (S-D) rats; test: Feeding behavior after ICV oleic acid bolus; type: in vivo, rat; conditions: for decrease in food intake compared with pre-injection basal levels: SC animals
Text: Animals and Experimental Design. Ten week-old male Sprague-Dawley (S-D) rats (Charles River Breeding Laboratories, Inc., Wilmington, Mass.) were housed in individual cages and subjected to a standard light dark cycle (0600-1800/1800-0600). At 14 days before the in vivo studies, all rats received implantations of ICV catheters by stereotaxic surgery as previously described (36). Rats were allowed to recover completely before initiation of all in vivo studies. Animals were fed a standard chow (SC, cat. no. 5001, Purina Mills Ltd, with 59% calories provided by carbohydrate, 28% by protein and 12% by fat, 3.3 kcal/g), a high sucrose (HS; animals were given free access to a 20% sucrose solution in addition to their standard chow diet), or a highly palatable high fat diet (HF, cat. no. 9389; Purina Mills Ltd., with 45% calories provided by carbohydrate, 22% by protein and 33% by fat, 5.32 kcal/g) which was designed by the supplementation of the SC diet with 10% lard. The lard contained 2% myristic acid, 24% palmitic acid, 13% stearic acid, 46% oleic acid, and 12% linoleic acid. The total composition of fats in the HF diet was 5.2% saturated, 6.2% monounsaturated, and 2.7% polyunsaturated fat by weight. The SC diet contained 1%, 1.5%, and 1.6% of saturated, monounsaturated, and polyunsaturated fats by weight, respectively. Five groups of animals ere included in the feeding and metabolic studies (described below) after three days on the following diet regimens (Table 2): 1) SC ad libitum (SC; ˜80 kcal/day); 2) HS ad libitum (HS; ˜95 kcal/day); 3) HF ad libitum (HF140; ˜140 kcal/day); 4) HF calorie restricted (HF55; ˜55 kcal/day); and 5) HF pair-fed to SC(HF80; ˜80 kcal/day). Central Delivery of OA. OA was complexed with the polymer hydroxypropyl-3-cyclodextrin (HPB, CTD Inc). […] OA was solubilized in 45% HPB to a final concentration of 17 mM. The HPB-OA solution was diluted in artificial cerebral spinal fluid (aCSF) to the appropriate concentration used for each ICV injections (30 or 300 nmol/5 μl). HPB alone at a similar concentration as in the OA studies was used in all vehicle control studies. Feeding Behavior Studies. This experimental protocol was designed to examine the acute effect of ICV OA on food intake in three experimental groups fed a standard chow (SC), a high sucrose diet (HS95) and a high fat diet (HF140). SC and HF140 animals were allowed to eat their diets ad libitum. HS animals were given free access to a 20% sucrose solution in addition to the standard chow diet for three days. Following three days of ad libitum feeding in all groups, on study day 0 (FIG. 5a), rats were given an ICV bolus injection of either […] of OA (30 nmol) or vehicle at a rate of 1 μl/min using a gas-tight syringe (Hamilton Corp) one hour before the start of the dark cycle. Food intake was measured at the same time daily for three days post-injection.

[2] = test system: male Sprague-Dawley (S-D) rats; test: ICV OA infusion with pancreatic-insulin clamp (insulin action studies); type: in vivo, rat; conditions: for effect on GP: over-fed rats (HF140)
Text: Insulin action studies. The experimental protocol herein was designed to examine the effect of nutritional status on the ability of long-chain fatty acids in the hypothalamus to modulate carbohydrate metabolism. Rats (n=43) were implanted with chronic catheters as previously described (Liu et al., 1998). After full recovery from the catheterization, animals were randomized into three groups HF55 (n=16), HF80 (n=9), or HF140 (n=18) and were allowed to consume their allocated diet for three days. On the night prior to the in vivo study all rats received 55 kcal to ensure a similar nutritional state at the start of the metabolic studies. All studies were performed in awake, unstressed, chronically catheterized rats. At t=−120 (FIG. 7a), a primed-continuous infusion of ICV OA (total dose 30- or 300-nmol) or Vehicle (HBP 10% in aCSF) was initiated and maintained throughout the duration of the study. Plasma glucose was measured periodically initiating at the onset (t=−120) of the ICV infusion and lasting throughout the duration of the study. Plasma samples for determination of insulin, leptin, and non-esterified fatty acid concentration were obtained at the onset (t=−120) and at 30 min intervals during the study. At t=0, and a primed-continuous infusion of HPLC-purified [3-3H]-glucose (New England Nuclear, Boston, Mass.; 40 μCi bolus, 0.4 μCi/min for duration of the study) was initiated and maintained for the last four hours of the study. Samples for determination of ^3H-glucose specific activity were obtained at 10-minute intervals throughout infusions. Finally, at t=120, a pancreatic-insulin clamp study was initiated and maintained for two hours. During this procedure, a primed-continuous infusion of regular insulin (1 mU/kg/min) was administered, and a variable infusion of 25% glucose solution was started at t=120 and periodically adjusted to clamp the plasma glucose concentration at ˜7 mM. The rate of insulin infusion was designed to replace the plasma insulin concentration at ˜the average basal levels in post-absorptive rats. In order to control for possible effects of the ICV injections on endocrine pancreas, somatostatin (3 μg/kg/min) was coinfused with insulin to inhibit endogenous insulin secretion. At the end of the in vivo studies, rats were anesthetized (pentobarbital 55 mg/kg body weight, intravenously) and tissue samples were freeze-clamped in situ with aluminum tongs pre-cooled in liquid nitrogen. All tissue samples were stored at −80° C. for subsequent analysis.
Analytical Procedures and Calculations. Plasma glucose was measured by the glucose oxidase method (Glucose Analyzer II, Beckman Instruments, Inc. Fullerton, Calif., USA). Plasma insulin and leptin levels were determined by RIA (rat Leptin RIA kit, Linco Research Inc., St. Charles, Mo.). Serum adiponectin was measured by RIA (Linco Research, Inc., St. Charles, Mo.). Plasma non-esterified fatty acid concentrations were determined an enzymatic method by an automated kit according to the manufacturer's specifications (Waco Pure Chemical Industries. Osaka, Japan). The radioactivity of [3-^3H]glucose in plasma was measured from supernatants of Ba (OH)2 and from ZnSO4 precipitates (Somogyi procedure), after each was evaporated to dryness for the removal of tritiated water. […]

Q: For `CCCCCCCC/C=C\CCCCCCCC(=O)O` [OA, oleic acid], which “decrease in daily food intake” value ([1]; HF140, ICV OA 30 nmol, first day) is on record?
A: Its value is 11%.

Q: What about the “decrease in daily food intake” value ([1]; HF140, ICV OA 30 nmol, second day) of the same molecule?
A: The value was −2%.

Q: What about the “decrease in daily food intake” value ([1]; HS95, ICV OA 30 nmol, first day) of the same molecule?
A: Its value is 21%.

Q: What about the “decrease in daily food intake” value ([1]; HS95, ICV OA 30 nmol, second day) of the same molecule?
A: The value was 17%.

Q: And the “decrease in food intake compared with pre-injection basal levels” value ([1]; ICV OA 30 nmol, first day)?
A: Its value is 48%.

Q: And the “decrease in food intake compared with pre-injection basal levels” value ([1]; ICV OA 30 nmol, second day)?
A: The value was 52%.

Q: What about the “return to baseline food intake after the OA injection” value ([1]; all groups (SC, HS95, HF140)) of the same molecule?
A: The value was 3 days.

Q: What about the “effect on feeding behavior” value ([1]; high fat chow) of the same molecule?
A: Its value is “failed to significantly alter feeding behavior”.

Q: What about the “effect on feeding behavior” value ([1]; high sucrose chow) of the same molecule?
A: Its value is “failed to significantly alter feeding behavior”.

Q: What about the duration of anorexia ([1]; standard chow, ICV OA 30 nmol) of the same molecule?
A: Its duration of anorexia is 48 h.

Q: What about the “decrease in food intake” value ([1]; standard chow, for 2 days) of the same molecule?
A: The value was roughly 50%.

Q: And the “inhibition of GP, decrease from basal” value ([2]; HF55, ICV OA 30 nmol)?
A: The value was 71%.

Q: What about the “GIR required to maintain euglycemia” value ([2]; HF80, ICV OA 30 nmol) of the same molecule?
A: The value was 4.64 mg/kg/min and ~9 mg/kg/min.

Q: And the “effect on GP” value ([2]; ICV OA 30 nmol)?
A: The value was “failed to significantly alter GP”.

Q: And the “effect on GP” value ([2]; ICV OA 300 nmol)?
A: The value was “failed to significantly decrease GP; also recorded: failed to significantly alter GP”.

Q: And the “rate of glucose disappearance (Rd)” value ([2]; pancreatic-insulin clamp, any of the experimental groups)?
A: The value was “did not significantly modify; also recorded: not significantly affected”.
